From patent publication US12668599B2, “Heterobifunctional compounds and methods of treating disease” (Halda Therapeutics OpCo, Inc., priority 2023, dated 2026)

Tests used:
[1] = tested on: T-Rex 293 cell line SC3 cells having increased expression of androgen receptor protein due to exposure to doxycycline; test: Cellular growth inhibition, T-Rex 293 SC3 cells with doxycycline-induced androgen receptor (CellTiter-Glo 2.0, 72 hours); type: cell-based; conditions: for GI50: T-Rex 293 SC3 cells with 10 ng/ml doxycycline (increased androgen receptor expression), 72 hours, CellTiter-Glo 2.0; for Ratio of GI50's: GI50 of the top compound in the pair divided by GI50 of the lower compound, T-Rex 293 SC3 cells with doxycycline-induced androgen receptor
Experimental: (§1) Ability of the test compounds to inhibit proliferation of the foregoing cell types was evaluated according to the procedures set forth below.
(§2) The doxycycline-inducible androgen receptor protein expressing cell line was established using the following protocol: T-Rex 293 cells were purchased from Invitrogen (Cat #R71007) and transfected using Lipofectamine 2000 with the wild-type androgen receptor protein sequence cloned into the pcDNA4/TO vector. Transfected cells were selected using 400 μg/mL Zeocin (Invitrogen Cat #R25001). Following selection, single clones were raised and maintained in Dulbecco's Modified Eagle Medium (DMEM) supplemented with 10% w/w Tetracycline-free fetal bovine serum (FBS) and 250 μg/mL Zeocin. Clones were analyzed for expression of androgen receptor protein in the presence and absence of 10 ng/ml doxycycline (Sigma Cat #D9891), and a single doxycycline-inducible clone (hereinafter “SC3”) was selected for use in downstream assays.
(§3) The SC3 cells were seeded on poly-D-lysine coated, black clear-bottom 384-well plates at 2500/well, in 25 μL Phenol Red Free Dulbecco's Modified Eagle Medium (DMEM) supplemented with 10% w/w charcoal-dextran treated fetal bovine serum (FBS) and 1% w/w pen-strep, with or without 10 ng/ml doxycycline. Pen-Strep is a commercially available mixture of penicillin G and streptomycin, which is used in mammalian cell culture media to prevent bacterial contamination. Phenol Red Free Dulbecco's Modified Eagle Medium (DMEM) supplemented with 10% w/w charcoal-dextran treated fetal bovine serum (FBS) and 1% w/w pen-strep, with or without 10 ng/mL doxycycline is herein referred to as Treatment Medium. Following seeding of cells in the plates, the plates were spun at 300×g for 30 seconds, then equilibrated to room temperature for 30 minutes, and then deposited in a humidified tissue culture incubator maintained at 37° C. with 5% CO2.
(§4) At 24 hours after seeding of the cells, dilutions of test compound were prepared in DMSO and dissolved in Treatment Medium, to achieve a final DMSO concentration of 0.5% w/w, thereby providing the Test Compound Solution. A 25 μL aliquot of the Test Compound Solution was added to cells in the well plates. An equal volume of a solution containing DMSO and Treatment Medium was used as a negative control. Following treatment of cells with Test Compound Solution or said equal volume of a solution containing DMSO and Treatment Medium, the plates were spun at 300×g for 30 seconds, and then left in an incubator for 72 hours.
(§5) At the end of the treatment duration, cell viability was quantified with CellTiter-Glo 2.0 reagent (Promega Cat #G9243). For this purpose, plates were equilibrated to room temperature for 30 minutes, and then 25 μL of CellTiter-Glo 2.0 reagent was added to cells in the plate wells. Plates were then agitated on a shaker for two minutes at 500 rpm and subsequently incubated at room temperature for 10 minutes. Following incubation, the plates were spun at 3000×g for 30 seconds, then sealed with an optical adhesive cover, and luminescence readings were measured with an En Vision Plate Reader.
(§6) Data was normalized using zero luminescence for baseline. A four-parameter non-linear regression curve fit was applied to dose-response data in GraphPad Prism data analysis software to determine the half-maximal growth inhibitory concentration (GI50) for each test compound.

[2] = tested on: T-Rex 293 cell line SC3 cells lacking increased expression of androgen receptor protein; test: Cellular growth inhibition, T-Rex 293 SC3 cells without doxycycline (CellTiter-Glo 2.0, 72 hours); type: cell-based; conditions: T-Rex 293 SC3 cells not exposed to doxycycline (no increased androgen receptor expression)
Experimental: as §1, §2, §3, §4, §5, §6

VCaP cells = test: Cellular growth inhibition assay for VCaP cells (CellTiter-Glo 2.0, 72 hours); type: cell-based, human; conditions: for GI50: CellTiter-Glo 2.0; for Ratio of GI50's: GI50 of the top compound in the pair divided by GI50 of the lower compound
Experimental: Exemplary compounds were tested for ability to inhibit the proliferation of VCaP cells. VCap cells are a commercially available human prostate cancer cell line.
VCaP cells were purchased from American Type Cell Culture (ATCC Cat #CRL2876) and then seeded on poly-D-lysine coated, black clear-bottom 384-well plates at 5000/well in 25 μL Dulbecco's Modified Eagle Medium (DMEM) supplemented with 10% w/w Fetal bovine serum (FBS) and 1% w/w Pen-Strep. Pen-Strep is a commercially available mixture of penicillin G and streptomycin, which is used in mammalian cell culture media to prevent bacterial contamination. Dulbecco's Modified Eagle Medium (DMEM) supplemented with 10% w/w fetal bovine serum (FBS) and 1% w/w Pen-Strep is herein referred to as Treatment Medium. Following seeding of cells in the plates, the plates were spun at 300×g for 30 seconds, then equilibrated to room temperature for 30 minutes, and then deposited in a humidified tissue culture incubator maintained at 37° C. with 5% CO2.
as §4, §5, §6

| SMILES | GI50 [1] | GI50 ([2]; 72 h) | GI50 (VCaP cells; Homo sapiens, VCaP, 72 h) | Ratio of GI50's [1] | Ratio of GI50's (VCaP cells) | other results |
| --- | --- | --- | --- | --- | --- | --- |
| COc1cc(O[C@H]2CC[C@H](NC(=O)c3ccc(N4CCC5(CCC(Oc6ccc(C7=N[C@@H](C)c8nnc(C)n8-c8sc(C)c(C)c87)cc6)C5)C4)nn3)CC2)ccc1C#N (single isomer, unassigned) [Compound I-49] | < 0.5 µM | < 0.5 µM | < 0.5 µM |  |  |  |
| COc1cc(O[C@H]2CC[C@H](NC(=O)c3ccc(N4CCC5(CCC(c6ccc(C7=N[C@@H](C)c8nnc(C)n8-c8sc(C)c(C)c87)cc6F)CC5)C4)nn3)CC2)ccc1C#N (single isomer, unassigned) [Compound I-56] | < 0.5 µM | < 0.5 µM | < 0.5 µM |  |  |  |
| COc1cc(O[C@H]2CC[C@H](NC(=O)c3ccc(N4CCC5(CCC(c6ccc(C7=N[C@@H](C)c8nnc(C)n8-c8sc(C)c(C)c87)c(F)c6)CC5)C4)nn3)CC2)ccc1C#N (single isomer, unassigned) [Compound I-58] | < 0.5 µM | < 0.5 µM | < 0.5 µM |  |  |  |
| COc1cc(O[C@H]2CC[C@H](NC(=O)c3ccc(N4CCC5(CCC(c6ccc(C7=N[C@@H](C)c8nnc(C)n8-c8sc(C)c(C)c87)c(Cl)c6)CC5)C4)nn3)CC2)ccc1C#N (single isomer, unassigned) [Compound I-64] | < 0.5 µM | < 0.5 µM | 0.5 to 1.5 µM |  |  |  |
| COc1cc(O[C@H]2CC[C@H](NC(=O)c3ccc(N4CCC5(CCC(c6ccc(C7=N[C@@H](C)c8nnc(C)n8-c8sc(C)c(C)c87)cc6OC)CC5)C4)nn3)CC2)ccc1C#N (single isomer, unassigned) [Compound I-66] | < 0.5 µM | < 0.5 µM | < 0.5 µM |  |  |  |
| COc1cc(O[C@H]2CC[C@H](NC(=O)c3ccc(N4CC5(CC(C#Cc6ccc(C7=NC(Cc8ncco8)c8nnc(C)n8-c8sc(C)c(C)c87)cc6F)C5)C4)nn3)CC2)ccc1C#N (single isomer, unassigned) [Compound I-123] | < 0.5 µM |  | < 0.5 µM |  |  | GI50 [2]: > 3 µM |
| COc1cc(O[C@H]2CC[C@H](NC(=O)c3ccc(N4CC5(CC(C#Cc6ccc(C7=NC(Cc8ncco8)c8nnc(C)n8-c8sc(C)c(C)c87)cc6F)C5)C4)nn3)CC2)ccc1C#N (single isomer, unassigned) [Compound I-127] | < 0.5 µM |  |  |  |  | GI50 [2]: < 0.5 µM; GI50 (VCaP cells; 72 hours): < 0.5 µM |
| COc1cc(O[C@H]2CC[C@H](NC(=O)c3ccc(N4CCC5(CCN(c6ccc(C7=NC(Cc8ncco8)c8nnc(C)n8-c8sc(C)c(C)c87)cc6F)CC5)C4)nn3)CC2)ccc1C#N (single isomer, unassigned) [Compound I-134] | < 0.5 µM |  |  |  |  | GI50 [2]: > 3 µM; GI50 (VCaP cells; 72 hours): > 3 µM |
| COc1cc(O[C@H]2CC[C@H](NC(=O)c3ccc(N4CCC5(CCN(c6ccc(C7=NC(Cc8ncco8)c8nnc(C)n8-c8sc(C)c(C)c87)cc6F)CC5)C4)nn3)CC2)ccc1C#N (single isomer, unassigned) [Compound I-135] | < 0.5 µM |  |  |  |  | GI50 [2]: < 0.5 µM; GI50 (VCaP cells; 72 hours): < 0.5 µM |
| Cc1sc2c(c1C)C(c1ccc(CC3CC4(CCN(c5ncc(C(=O)N[C@H]6C(C)(C)[C@H](Oc7ccc(C#N)c(Cl)c7)C6(C)C)cn5)CC4)C3)cc1)=N[C@@H](Cc1ncco1)c1nnc(C)n1-2 [C, reference compound] |  |  |  | 22.0 | 2.6 |  |
| COc1cc(O[C@H]2CC[C@H](NC(=O)c3ccc(N4CCCC5(CCN(c6ccc(C7=N[C@@H](C)c8nnc(C)n8-c8sc(C)c(C)c87)cc6)CC5)C4)nn3)CC2)ccc1C#N [Compound I-18] |  |  | < 0.5 µM |  |  |  |
| COc1cc(O[C@H]2CC[C@H](NC(=O)c3ccc(N4CCCC5(CCN(c6ccc(C7=N[C@@H](C)c8nnc(C)n8-c8sc(C)c(C)c87)cc6)CC5)C4)nn3)CC2)ccc1C#N [Compound I-26] | < 0.5 µM | < 0.5 µM |  |  |  |  |
| COc1cc(O[C@H]2CC[C@H](NC(=O)c3ccc(N4CCC5(CCCN(c6ccc(C7=N[C@@H](C)c8nnc(C)n8-c8sc(C)c(C)c87)cc6)C5)C4)nn3)CC2)ccc1C#N (stereo partly drawn) [Compound I-82, N-((1r,4r)-4-(4-cyano-3-methoxyphenoxy)cyclohexyl)-6-(7-(4-((S)-2,3,6,9-tetramethyl-6H-thieno[3,2-f][1,2,4]triazolo[4,3-a][1,4]diazepin-4-yl)phenyl)-2,7-diazaspiro[4.5]decan-2-yl) pyridazine-3-carboxamide] | < 0.5 µM |  | < 0.5 µM |  |  |  |
| COc1cc(O[C@H]2CC[C@H](NC(=O)c3ccc(N4CCC5(CCCN(c6ccc(C7=N[C@@H](C)c8nnc(C)n8-c8sc(C)c(C)c87)cc6)C5)C4)nn3)CC2)ccc1C#N (stereo partly shown) [Compound I-98] |  | < 0.5 µM |  |  |  |  |
| COc1cc(O[C@H]2CC[C@H](NC(=O)c3ccc(N4CCC5(CCN(c6ccc(C7=N[C@@H](C)c8nnc(C)n8-c8sc(C)c(C)c87)cc6)CC56CCC6)C4)nn3)CC2)ccc1C#N (stereo partly shown) [Compound I-130] | < 0.5 µM |  | < 0.5 µM |  |  |  |
| COc1cc(O[C@H]2CC[C@H](NC(=O)c3ccc(N4CCC5(CCN(c6ccc(C7=N[C@@H](C)c8nnc(C)n8-c8sc(C)c(C)c87)cc6)CC56CCC6)C4)nn3)CC2)ccc1C#N (stereo partly shown) [Compound I-132] |  | < 0.5 µM |  |  |  |  |
| Cc1sc2c(c1C)C(c1ccc(C3CCC4(CC3)CCN(c3ncc(C(=O)N[C@H]5C(C)(C)[C@H](Oc6ccc(C#N)c(Cl)c6)C5(C)C)cn3)C4)cc1)=N[C@@H](Cc1ncco1)c1nnc(C)n1-2 [D, reference compound] |  |  |  | 3.8 | 6.5 |  |
| Cc1sc2c(c1C)C(c1ccc(OC3CC4(CCN(c5ccc(C(=O)N[C@H]6CC[C@H](Oc7ccc(C#N)c(Cl)c7)CC6)nn5)CC4)C3)cc1)=N[C@@H](Cc1ncco1)c1nnc(C)n1-2 [E, reference compound] |  |  |  | 4.7 | 4.4 |  |
| Cc1sc2c(c1C)C(c1ccc(CC3CC4(CCN(c5ccc(C(=O)N[C@H]6CC[C@H](Oc7ccc(C#N)c(Cl)c7)CC6)nn5)CC4)C3)cc1)=N[C@@H](Cc1ncco1)c1nnc(C)n1-2 [F, reference compound] |  |  |  | 3.8 | 1.9 |  |
| Cc1sc2c(c1C)C(c1ccc(C#CC3CC4(C3)CN(c3ccc(C(=O)N[C@H]5CC[C@H](Oc6ccc(C#N)c(Cl)c6)CC5)nn3)C4)cc1)=N[C@@H](Cc1ncco1)c1nnc(C)n1-2 [G, reference compound] |  |  |  | 1.7 | 1.5 |  |
| Cc1sc2c(c1C)C(c1ccc(N3CCC4(CC3)CCN(c3ccc(C(=O)N[C@H]5CC[C@H](Oc6ccc(C#N)c(Cl)c6)CC5)nn3)C4)cc1)=N[C@@H](C)c1nnc(C)n1-2 [H, reference compound] |  |  |  | 8.4 | 1.8 |  |
| Cc1sc2c(c1C)C(c1ccc(C3CCC4(CC3)CCN(c3ccc(C(=O)N[C@H]5CC[C@H](Oc6ccc(C#N)c(Cl)c6)CC5)nn3)C4)cc1)=N[C@@H](Cc1ncco1)c1nnc(C)n1-2 (stereo partly shown) [J, reference compound] |  |  |  | 3.2 | 3.0 |  |
| Cc1sc2c(c1C)C(c1ccc(C#CC3CC4(C3)CN(c3ccc(C(=O)N[C@H]5CC[C@H](Oc6ccc(C#N)c(Cl)c6)CC5)nn3)C4)cc1F)=NC(Cc1ncco1)c1nnc(C)n1-2 (stereo partly shown) [K, reference compound] |  |  |  | 2.0 | 1.5 |  |
